Key:
[1] = biological target: T1, PARP14 cat-wwe (Homo sapiens, UniProt Q460N5); test: In vitro IC50, PARP14 cat-wwe; format: biochemical; conditions: SEM from a minimum of three dose-response experiments
T1 construct: PARP14 cat-wwe; no borders given for the assay protein
T1 sequence (Q460N5 1523-1801 limits assumed): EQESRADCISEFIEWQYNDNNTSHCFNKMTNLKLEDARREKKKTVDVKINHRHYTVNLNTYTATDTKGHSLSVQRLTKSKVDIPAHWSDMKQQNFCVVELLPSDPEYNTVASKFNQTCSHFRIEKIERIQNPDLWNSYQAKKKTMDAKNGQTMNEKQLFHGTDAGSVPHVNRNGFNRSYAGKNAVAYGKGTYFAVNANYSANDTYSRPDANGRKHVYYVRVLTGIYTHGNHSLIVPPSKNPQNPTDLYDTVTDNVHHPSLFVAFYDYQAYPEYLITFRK

[2] = biological target: T2, PARP6 (Homo sapiens, UniProt Q2NL67); test: In vitro IC50, immunoprecipitated GFP-PARP6 auto-MARylation; format: biochemical
T2 construct: expressed in transfected cells; host or cells: HEK 293T
T2 sequence (Q2NL67 whole entry): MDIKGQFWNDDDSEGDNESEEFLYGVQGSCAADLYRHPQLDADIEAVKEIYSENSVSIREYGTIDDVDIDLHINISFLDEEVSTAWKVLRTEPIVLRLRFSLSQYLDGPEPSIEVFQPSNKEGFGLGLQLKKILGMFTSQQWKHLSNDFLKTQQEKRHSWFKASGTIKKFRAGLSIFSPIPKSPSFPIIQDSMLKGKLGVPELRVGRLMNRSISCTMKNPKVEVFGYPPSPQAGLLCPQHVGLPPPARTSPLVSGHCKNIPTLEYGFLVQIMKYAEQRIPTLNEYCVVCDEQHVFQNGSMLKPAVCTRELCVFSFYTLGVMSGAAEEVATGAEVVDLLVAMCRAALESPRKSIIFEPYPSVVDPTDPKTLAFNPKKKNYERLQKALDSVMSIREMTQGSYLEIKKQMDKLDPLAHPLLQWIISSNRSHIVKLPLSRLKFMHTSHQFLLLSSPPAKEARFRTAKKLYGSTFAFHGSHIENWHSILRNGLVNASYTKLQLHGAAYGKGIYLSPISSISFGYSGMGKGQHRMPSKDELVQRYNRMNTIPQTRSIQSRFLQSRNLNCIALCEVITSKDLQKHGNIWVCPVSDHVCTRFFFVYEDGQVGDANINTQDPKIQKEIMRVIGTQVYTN
Experimental: Auto-MARylation was analyzed by Western blot with an ADP-ribose (ADPr) binding reagent (uncropped blots shown below).

[3] = biological target: T3, PARP11 (Homo sapiens, UniProt Q9NR21); test: In vitro IC50, PARP11 (plate assay, MARylation of SRPK2 and NXF1); format: biochemical; conditions: SEM from a minimum of three dose-response experiments
T3 sequence (Q9NR21 1-338): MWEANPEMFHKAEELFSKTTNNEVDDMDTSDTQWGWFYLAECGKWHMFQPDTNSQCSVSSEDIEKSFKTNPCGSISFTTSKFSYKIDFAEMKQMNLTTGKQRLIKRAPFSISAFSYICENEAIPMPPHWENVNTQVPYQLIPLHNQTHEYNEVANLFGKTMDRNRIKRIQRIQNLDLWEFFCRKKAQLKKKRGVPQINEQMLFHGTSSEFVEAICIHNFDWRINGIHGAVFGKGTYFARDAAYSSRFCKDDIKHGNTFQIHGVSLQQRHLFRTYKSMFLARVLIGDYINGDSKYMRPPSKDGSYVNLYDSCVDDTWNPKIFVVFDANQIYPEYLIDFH
From the text: Curves generated using Prism 7 (Graph Pad); error bars indicate ±SEM from at least two replicates.

[4] = biological target: T4, PARP5 bcat (Homo sapiens, UniProt Q9H2K2); test: In vitro IC50, PARP5bcat; format: biochemical; conditions: SEM from a minimum of three dose-response experiments
T4 construct: bcat
T4 sequence (Q9H2K2 959-1164): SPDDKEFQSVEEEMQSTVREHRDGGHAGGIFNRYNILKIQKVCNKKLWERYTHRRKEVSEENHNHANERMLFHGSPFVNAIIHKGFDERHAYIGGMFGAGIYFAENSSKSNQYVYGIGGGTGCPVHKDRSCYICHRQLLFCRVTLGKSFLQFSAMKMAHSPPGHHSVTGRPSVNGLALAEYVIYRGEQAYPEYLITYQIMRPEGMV

[5] = biological target: T5, PARP15 cat (Homo sapiens, UniProt Q460N3); test: In vitro IC50, PARP15 cat; format: biochemical; conditions: SEM from a minimum of three dose-response experiments
T5 construct: cat-wwe; cat
T5 sequence (Q460N3 482-678 limits assumed): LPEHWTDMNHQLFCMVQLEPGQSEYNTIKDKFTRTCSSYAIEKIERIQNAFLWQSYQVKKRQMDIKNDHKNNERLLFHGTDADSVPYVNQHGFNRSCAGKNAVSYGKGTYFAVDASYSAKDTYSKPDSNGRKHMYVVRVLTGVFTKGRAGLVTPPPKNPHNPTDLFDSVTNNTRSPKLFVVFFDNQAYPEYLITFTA

[6] = biological target: T6, PARP4 Brct-cat (Homo sapiens, UniProt Q9UKK3); test: In vitro IC50, PARP4 Brct-cat; format: biochemical; conditions: SEM from a minimum of three dose-response experiments
T6 construct: PARP4 Brct-cat
T6 sequence (Q9UKK3 1-573 limits assumed): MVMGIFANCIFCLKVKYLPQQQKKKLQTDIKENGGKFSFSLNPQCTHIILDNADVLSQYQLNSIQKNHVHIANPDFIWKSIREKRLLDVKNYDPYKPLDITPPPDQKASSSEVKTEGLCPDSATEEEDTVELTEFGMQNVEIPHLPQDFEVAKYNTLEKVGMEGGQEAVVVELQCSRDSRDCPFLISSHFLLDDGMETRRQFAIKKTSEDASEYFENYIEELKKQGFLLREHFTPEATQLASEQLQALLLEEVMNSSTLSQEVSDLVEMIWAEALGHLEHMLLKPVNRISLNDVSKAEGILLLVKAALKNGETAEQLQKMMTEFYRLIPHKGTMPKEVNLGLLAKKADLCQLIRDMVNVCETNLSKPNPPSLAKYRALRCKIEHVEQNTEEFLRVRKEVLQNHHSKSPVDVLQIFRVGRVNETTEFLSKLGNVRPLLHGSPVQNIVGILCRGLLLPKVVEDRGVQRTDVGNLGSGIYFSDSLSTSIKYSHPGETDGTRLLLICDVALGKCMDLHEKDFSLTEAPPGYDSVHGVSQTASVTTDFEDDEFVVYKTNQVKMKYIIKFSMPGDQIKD

[7] = biological target: T7, PARP10 (Homo sapiens, UniProt Q53GL7); test: GFP-PARP10 auto-MARylation in HEK 293T cells (Western blot); conditions: for Inhibition of PARP10 auto-MARylation in cells at 3 μM: HEK 293T cells transfected with GFP-PARP10, 3 μM for 3 h
T7 sequence (Q53GL7 1-1025): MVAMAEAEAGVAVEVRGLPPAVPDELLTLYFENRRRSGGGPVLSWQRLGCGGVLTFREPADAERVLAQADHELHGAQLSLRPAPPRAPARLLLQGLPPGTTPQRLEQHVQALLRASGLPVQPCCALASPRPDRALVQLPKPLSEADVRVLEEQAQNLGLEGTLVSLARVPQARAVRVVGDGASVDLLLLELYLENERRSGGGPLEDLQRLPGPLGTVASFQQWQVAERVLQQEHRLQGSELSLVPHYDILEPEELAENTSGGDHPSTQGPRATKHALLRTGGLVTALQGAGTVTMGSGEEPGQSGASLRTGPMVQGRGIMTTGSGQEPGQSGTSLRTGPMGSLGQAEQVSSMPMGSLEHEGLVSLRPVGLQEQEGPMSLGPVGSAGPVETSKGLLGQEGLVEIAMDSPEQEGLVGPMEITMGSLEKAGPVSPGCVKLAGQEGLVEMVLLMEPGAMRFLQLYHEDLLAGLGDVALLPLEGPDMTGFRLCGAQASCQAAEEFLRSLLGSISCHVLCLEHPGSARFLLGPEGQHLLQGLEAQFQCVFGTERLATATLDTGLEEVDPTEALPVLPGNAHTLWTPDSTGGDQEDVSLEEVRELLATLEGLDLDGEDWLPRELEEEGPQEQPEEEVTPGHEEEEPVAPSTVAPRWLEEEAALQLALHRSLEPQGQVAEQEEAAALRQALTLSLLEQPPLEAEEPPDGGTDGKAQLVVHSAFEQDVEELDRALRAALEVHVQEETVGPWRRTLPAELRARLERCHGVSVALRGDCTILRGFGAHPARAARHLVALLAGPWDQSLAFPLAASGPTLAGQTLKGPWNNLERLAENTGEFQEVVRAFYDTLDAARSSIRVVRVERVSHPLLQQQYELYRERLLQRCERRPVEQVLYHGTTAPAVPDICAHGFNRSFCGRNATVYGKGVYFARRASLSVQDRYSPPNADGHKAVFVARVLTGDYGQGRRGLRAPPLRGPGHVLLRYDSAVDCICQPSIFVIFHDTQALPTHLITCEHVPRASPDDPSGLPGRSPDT

Row | Structure (SMILES) | IC50 [1] | IC50 [2] | IC50 [3] | IC50 [4] | IC50 [5] | IC50 [6] | Inhibition of PARP10 auto-MARylation in cells at 3 μM [7] | Inhibition of PARP10 auto-MARylation in cells, dose response ([7]; HEK 293T cells transfected with GFP-PARP10, increasing concentrations for 90 min)
1 | CC#Cc1ccc2c(=O)[nH]c(CSc3ccc(C(=O)O)cc3)nc2c1C [ITK6, 4-(((8-methyl-4-oxo-7-(prop-1-yn-1-yl)-3,4-dihydroquinazolin-2-yl)methyl)thio) benzoic acid] | 0.917 ± 0.086 µM | > 3 µM | 0.099 ± 0.016 µM | > 30 µM | 0.496 ± 0.19 µM | > 30 µM | inhibits PARP10 auto-MARylation in cells | inhibits PARP10 auto-MARylation in cells in a dose dependent manner
2 | CC#Cc1ccc2c(=O)[nH]c(CSc3ncccn3)nc2c1C [ITK7, 8-methyl-7-(prop-1-yn-1-yl)-2-((pyrimidin-2-ylthio)methyl)quinazolin-4(3H)-one] | 2.86 ± 0.35 µM | > 3 µM | 0.014 ± 0.003 µM | > 30 µM | > 30 µM | > 30 µM | does not inhibit PARP10 | 
